Reference: patent US20220132847A1, “CINNOLINIUM COMPOUNDS FOR USE IN A METHOD OF CONTROLLING UNWANTED PLANT GROWTH” (SYNGENTA CROP PROTECTION AG, priority 2019, published 2022)

What was measured:
Assay in all cases: Post-emergence efficacy, glasshouse
Assay type in all cases: in vivo
[1] = system: Setaria faberi (SETFA); settings: Setaria faberi, post-emergence, 312 h; Application Rate 1000 g/Ha; evaluated after 13 days; 100=total damage to plant, 0=no damage to plant; read-out: Control of weed species after post-emergence application, SETFA
Experimental: (§1) Seeds of a variety of test species were sown in standard soil in pots. After cultivation for 14 days (post-emergence) under controlled conditions in a glasshouse (at 24/16° C., day/night; 14 hours light; 65% humidity), the plants were sprayed with an aqueous spray solution derived from the dissolution of the technical active ingredient formula (I) in a small amount of acetone and a special solvent and emulsifier mixture referred to as IF50 (11.12% Emulsogen EL360™+44.44% N-methylpyrrolidone+44.44% Dowanol DPM glycol ether), to create a 50 g/l solution which was then diluted to required concentration using 0.25% or 1% Empicol ESC70 (Sodium lauryl ether sulphate)+1% ammonium sulphate in water as diluent.
(§2) The test plants were then grown in a glasshouse under controlled conditions (at 24/16° C., day/night; 14 hours light; 65% humidity) and watered twice daily. After 13 days the test was evaluated (100=total damage to plant; 0=no damage to plant).
(§3) Ipomoea hederacea (IPOHE), Euphorbia heterophylla (EPHHL), Chenopodium album (CHEAL), Amaranthus palmeri (AMAPA), Lolium perenne (LOLPE), Digitaria sanguinalis (DIGSA), Eleusine indica (ELEIN), Echinochloa crus-galli (ECHCG), Setaria faberi (SETFA)

[2] = system: Eleusine indica (ELEIN); settings: Eleusine indica, post-emergence, 312 h; Application Rate 1000 g/Ha; evaluated after 13 days; 100=total damage to plant, 0=no damage to plant; read-out: Control of weed species after post-emergence application, ELEIN
Experimental: as §1, §2, §3

[3] = system: Ipomoea hederacea (IPOHE); settings: Ipomoea hederacea, post-emergence, 312 h; Application Rate 1000 g/Ha; evaluated after 13 days; 100=total damage to plant, 0=no damage to plant; read-out: Control of weed species after post-emergence application, IPOHE
Experimental: as §1, §2, §3

[4] = system: Digitaria sanguinalis (DIGSA); settings: Digitaria sanguinalis, post-emergence, 312 h; Application Rate 1000 g/Ha; evaluated after 13 days; 100=total damage to plant, 0=no damage to plant; read-out: Control of weed species after post-emergence application, DIGSA
Experimental: as §1, §2, §3

[5] = system: Euphorbia heterophylla (EPHHL); settings: Euphorbia heterophylla, post-emergence, 312 h; Application Rate 1000 g/Ha; evaluated after 13 days; 100=total damage to plant, 0=no damage to plant; read-out: Control of weed species after post-emergence application, EPHHL
Experimental: as §1, §2, §3

[6] = system: Amaranthus palmeri (AMAPA); settings: Amaranthus palmeri, post-emergence, 312 h; Application Rate 1000 g/Ha; evaluated after 13 days; 100=total damage to plant, 0=no damage to plant; read-out: Control of weed species after post-emergence application, AMAPA
Experimental: as §1, §2, §3

[7] = system: Echinochloa crus-galli (ECHCG); settings: Echinochloa crus-galli, post-emergence, 312 h; Application Rate 1000 g/Ha; evaluated after 13 days; 100=total damage to plant, 0=no damage to plant; read-out: Control of weed species after post-emergence application, ECHCG
Experimental: as §1, §2, §3

[8] = system: Lolium perenne (LOLPE); settings: Lolium perenne, post-emergence, 312 h; Application Rate 1000 g/Ha; evaluated after 13 days; 100=total damage to plant, 0=no damage to plant; read-out: Control of weed species after post-emergence application, LOLPE
Experimental: as §1, §2, §3

[9] = system: Chenopodium album (CHEAL); settings: Chenopodium album, post-emergence, 312 h; Application Rate 1000 g/Ha; evaluated after 13 days; 100=total damage to plant, 0=no damage to plant; read-out: Control of weed species after post-emergence application, CHEAL
Experimental: as §1, §2, §3

Q: For `C[n+]1cc(C(=O)[O-])c2ccccc2n1` [Compound A1], which pest or weed control at 1000 g/ha [1] is on record?
A: 30%

Q: And the pest or weed control at 1000 g/ha [2]?
A: 100%

Q: And the pest or weed control at 1000 g/ha [3]?
A: 70%

Q: What about the pest or weed control at 1000 g/ha [4] of the same compound?
A: 90%

Q: And the pest or weed control at 1000 g/ha [5]?
A: 70%

Q: What about the pest or weed control at 1000 g/ha [6] of the same compound?
A: 100%

Q: And the pest or weed control at 1000 g/ha [7]?
A: 20%

Q: And the pest or weed control at 1000 g/ha [8]?
A: 50%

Q: And the pest or weed control at 1000 g/ha [9]?
A: 100%

Q: What does the source list for `C[n+]1cc(C(=O)[N-]S(=O)(=O)c2ccccc2)c2ccccc2n1` [Compound A35]?
A: pest or weed control at 1000 g/ha [1]: 10%; pest or weed control at 1000 g/ha [2]: 0%; pest or weed control at 1000 g/ha [3]: 20%; pest or weed control at 1000 g/ha [4]: 10%; pest or weed control at 1000 g/ha [5]: 40%; pest or weed control at 1000 g/ha [6]: 20%; pest or weed control at 1000 g/ha [7]: 0%; pest or weed control at 1000 g/ha [8]: 0%; pest or weed control at 1000 g/ha [9]: 0%

Q: With `C[n+]1cc(C(=O)[N-]S(=O)(=O)C(C)(C)C)c2ccccc2n1` [Compound A36] as the compound, how does the pest or weed control at 1000 g/ha [1] read?
A: 30%

Q: What about the pest or weed control at 1000 g/ha [2] of the same compound?
A: 30%

Q: What about the pest or weed control at 1000 g/ha [3] of the same compound?
A: 30%

Q: And the pest or weed control at 1000 g/ha [4]?
A: 10%

Q: What about the pest or weed control at 1000 g/ha [5] of the same compound?
A: 20%

Q: What about the pest or weed control at 1000 g/ha [6] of the same compound?
A: 40%

Q: And the pest or weed control at 1000 g/ha [7]?
A: 10%

Q: What about the pest or weed control at 1000 g/ha [8] of the same compound?
A: 0%

Q: What about the pest or weed control at 1000 g/ha [9] of the same compound?
A: 30%

Q: With `COC(=O)CC[n+]1cc(C(=O)[N-]S(C)(=O)=O)c2ccccc2n1` [Compound A18] as the compound, how does the pest or weed control at 1000 g/ha [1] read?
A: 10%

Q: What about the pest or weed control at 1000 g/ha [2] of the same compound?
A: 20%

Q: What about the pest or weed control at 1000 g/ha [3] of the same compound?
A: 20%

Q: What about the pest or weed control at 1000 g/ha [4] of the same compound?
A: 30%

Q: What about the pest or weed control at 1000 g/ha [5] of the same compound?
A: 10%

Q: And the pest or weed control at 1000 g/ha [6]?
A: 10%

Q: What about the pest or weed control at 1000 g/ha [7] of the same compound?
A: 20%

Q: And the pest or weed control at 1000 g/ha [8]?
A: 0%

Q: What about the pest or weed control at 1000 g/ha [9] of the same compound?
A: 10%

Q: With `C[n+]1cc(C(=O)[N-]c2nnn[nH]2)c2ccccc2n1` [Compound A17] as the compound, how does the pest or weed control at 1000 g/ha [1] read?
A: 10%

Q: And the pest or weed control at 1000 g/ha [2]?
A: 20%

Q: And the pest or weed control at 1000 g/ha [3]?
A: 40%

Q: And the pest or weed control at 1000 g/ha [4]?
A: 10%

Q: What about the pest or weed control at 1000 g/ha [5] of the same compound?
A: 20%

Q: What about the pest or weed control at 1000 g/ha [6] of the same compound?
A: 50%

Q: And the pest or weed control at 1000 g/ha [7]?
A: 0%

Q: What about the pest or weed control at 1000 g/ha [8] of the same compound?
A: 10%

Q: What about the pest or weed control at 1000 g/ha [9] of the same compound?
A: 30%

Q: With `CS(=O)(=O)[N-]C(=O)c1c[n+](CC(F)F)nc2ccccc12` [Compound A14, [2-(2,2-difluoroethyl)cinnolin-2-ium-4-carbonyl]-methylsulfonyl-azanide] as the compound, how does the pest or weed control at 1000 g/ha [1] read?
A: 30%

Q: What about the pest or weed control at 1000 g/ha [2] of the same compound?
A: 30%

Q: And the pest or weed control at 1000 g/ha [3]?
A: 40%

Q: And the pest or weed control at 1000 g/ha [4]?
A: 40%

Q: What about the pest or weed control at 1000 g/ha [5] of the same compound?
A: 40%

Q: And the pest or weed control at 1000 g/ha [6]?
A: 20%

Q: What about the pest or weed control at 1000 g/ha [7] of the same compound?
A: 20%

Q: And the pest or weed control at 1000 g/ha [8]?
A: 0%

Q: And the pest or weed control at 1000 g/ha [9]?
A: 20%

Q: For `CCP(=O)([O-])c1c[n+](C)nc2ccccc12` [Compound A48, ethyl-(2-methylcinnolin-2-ium-4-yl)phosphinate], which pest or weed control at 1000 g/ha [1] is on record?
A: 100%

Q: What about the pest or weed control at 1000 g/ha [2] of the same compound?
A: 100%

Q: What about the pest or weed control at 1000 g/ha [3] of the same compound?
A: 70%

Q: What about the pest or weed control at 1000 g/ha [4] of the same compound?
A: 70%

Q: What about the pest or weed control at 1000 g/ha [5] of the same compound?
A: 100%

Q: What about the pest or weed control at 1000 g/ha [6] of the same compound?
A: 100%

Q: What about the pest or weed control at 1000 g/ha [7] of the same compound?
A: 80%

Q: And the pest or weed control at 1000 g/ha [8]?
A: 40%

Q: What about the pest or weed control at 1000 g/ha [9] of the same compound?
A: 100%
